Values after ≈ are worked out from the molar mass of the structure shown.
Tests used:
[1] = target: T1, β-lactamase from Citrobacter freundii (Citrobacter freundii, UniProt P05193); assay: Stability against β-lactamase, relative hydrolysis; assay type: biochemical; details: Citrobacter freundii enzyme; 100 μM; relative(percentage), Cephaloridine taken as 100; OD at 260 nm
T1 construct: directly isolated from Enterobacter cloacae P99, E. coli TEM and Citrobacter freundii; endogenous in cells
Protocol: (§1) In order to establish the usefulness in clinical applications of the compounds provided by the invention, the compound of Example 18 was tested for stability against the β-lactamase and for antibacterial activity on systemic infection model.
(§2) First, the stability against the β-lactamase was tested by determining the relative(percentage) hydrolysis of the compound of Example 18, relative to that of Cephaloridine, taking the absolute rate of Cephaloridine as 100.
(§3) The β-lactamases employed in the test were directly isolated from Enterobacter cloacae P99, E. coli TEM and Citrobacter freundii, and the antibiotics for comparison were Cephaloridine, Cephradine, Cefoperazone and Cefotaxime.
(§4) Cephaloridine, other known antibiotics and the compound of Example 18 were reacted with each of the enzymes isolated from the strains and the OD were determined at 260 nm, λmax of Cephaloridine. The relative hydrolysis of various compounds were calculated relative to the OD of Cephaloridine.

[2] = target: T2, β-lactamase from E. coli TEM (Escherichia coli, UniProt P62593); assay: Stability against β-lactamase, relative hydrolysis; assay type: biochemical; details: E. coli TEM enzyme; 100 μM; relative(percentage), Cephaloridine taken as 100; OD at 260 nm
T2 construct: directly isolated from Enterobacter cloacae P99, E. coli TEM and Citrobacter freundii; endogenous in cells; host or cells: E. coli TEM (plasmid-carried enzyme of the strain)
T2 sequence (P62593 24-286 limits assumed): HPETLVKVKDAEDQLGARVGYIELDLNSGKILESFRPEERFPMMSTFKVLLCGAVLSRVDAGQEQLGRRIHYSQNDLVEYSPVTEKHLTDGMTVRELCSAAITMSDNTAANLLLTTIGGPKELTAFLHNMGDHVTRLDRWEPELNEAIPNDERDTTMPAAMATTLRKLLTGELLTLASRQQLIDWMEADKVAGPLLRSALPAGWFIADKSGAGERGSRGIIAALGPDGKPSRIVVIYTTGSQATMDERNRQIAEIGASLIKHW
Protocol: as §1, §2, §3, §4

Escherichia coli DC 2 = assay: Antibacterial activity, MIC by Agar dilution method, standard test strain 9; assay type: cell-based; details: Escherichia coli, DC2, 18 h
Protocol: (§5) The antibacterial activity was determined by an Agar dilution method as described below.
(§6) That is, the two-fold serial dilutions of the antibacterial compounds (1000 μg compound/ml) were prepared and dispersed in Muller Hinton Agar in a petri dish to a concentration of 100~0.002 μg/ml. The culture broths of standard test strains were inoculated on the medium to a concentration 10^7 CFU/ml, and incubated at 37° C. for 18 hours. The concentration of compounds(I) at which the strains were not grown was regarded as minimum inhibition concentration (MIC).
(§7) The results of antibacterial activity test of the representative examples of the compound (I) against 20 standard test strains shown in terms of MIC were indicated in Table 1.

[3] = system: Pseudomonas aeruginosa 1771M; assay: Antibacterial activity, MIC by Agar dilution method, standard test strain 15; assay type: cell-based; details: 18 h
Protocol: as §5, §6, §7
15. Pseudomonas aeruginosa 1771M

Staphyloccus aureus 285 = assay: Antibacterial activity, MIC by Agar dilution method, standard test strain 5; assay type: cell-based; details: 10^7 CFU/ml, 37° C., 18 hours
Protocol: as §5, §6, §7
5. Staphyloccus aureus 285

[4] = system: Gram-positive strains, for example, Staphylococcus aureus; assay: Antibacterial activity against Gram-positive strains (summary in words); assay type: cell-based; details: e.g. Staphylococcus aureus resistant to third-generation cephalosporins
Protocol: as §5, §6

[5] = system: Streptococcus pyogenes A 77; assay: Antibacterial activity, MIC by Agar dilution method, standard test strain 2; assay type: cell-based; details: A77, 10^7 CFU/ml, 37° C., 18 hours
Protocol: as §5, §6, §7
2. Streptococcus pyogenes A 77

[6] = system: Pseudomonas aeruginosa 1771; assay: Antibacterial activity, MIC by Agar dilution method, standard test strain 14; assay type: cell-based; details: 10^7 CFU/ml, 37° C., 18 hours
Protocol: as §5, §6, §7
14. Pseudomonas aeruginosa 1771

Klebsiella oxytoca 1082E = assay: Antibacterial activity, MIC by Agar dilution method, standard test strain 17; assay type: cell-based; details: 10^7 CFU/ml, 37° C., 18 hours
Protocol: as §5, §6, §7

[7] = system: Streptococcus faecium MD 86; assay: Antibacterial activity, MIC by Agar dilution method, standard test strain 3; assay type: cell-based; details: Enterococcus faecium, MD86, 10^7 CFU/ml, 37° C., 18 hours
Protocol: as §5, §6, §7
3. Streptococcus faecium MD 86

[8] = system: Klebsiella aerogenes 1522E; assay: Antibacterial activity, MIC by Agar dilution method, standard test strain 18; assay type: cell-based; details: Klebsiella aerogenes, 1522E, 18 h
Protocol: as §5, §6, §7
18. Klebsiella aerogenes 1522E

Escherichia coli 1507E = assay: Antibacterial activity, MIC by Agar dilution method, standard test strain 11; assay type: cell-based; details: Escherichia coli, 1507E, 18 h
Protocol: as §5, §6, §7

[9] = system: Staphylococcus aureus 503; assay: Antibacterial activity, MIC by Agar dilution method, standard test strain 6; assay type: cell-based; details: 10^7 CFU/ml, 37° C., 18 hours
Protocol: as §5, §6, §7
6. Staphylococcus aureus 503

[10] = system: β-lactamase producing strains such as Pseudomonas aeruginosa and Enterobacter cloacae; assay: Antibacterial activity against β-lactamase producing strains (summary in words); assay type: cell-based
Protocol: as §5, §6

[11] = system: Staphylococcus aureus SG 511; assay: Antibacterial activity, MIC by Agar dilution method, standard test strain 4; assay type: cell-based; details: SG511, 10^7 CFU/ml, 37° C., 18 hours
Protocol: as §5, §6, §7
4. Staphylococcus aureus SG 511

Salmonella typhimurium = assay: Antibacterial activity, MIC by Agar dilution method, standard test strain 16; assay type: cell-based; details: Salmonella enterica, 10^7 CFU/ml, 37° C., 18 hours
Protocol: as §5, §6, §7
16. Salmonella typhimurium

[12] = system: Enterobacter cloacae 1321E; assay: Antibacterial activity, MIC by Agar dilution method, standard test strain 20; assay type: cell-based; details: Enterobacter cloacae, 1321E, 18 h
Protocol: as §5, §6, §7
20. Enterobacter cloacae 1321E

[13] = system: Streptococcus pyogenes A 308; assay: Antibacterial activity, MIC by Agar dilution method, standard test strain 1; assay type: cell-based; details: A308, 10^7 CFU/ml, 37° C., 18 hours
Protocol: as §5, §6, §7
1. Streptococcus pyogenes A 308

Enterobacter cloacae P99 = assay: Antibacterial activity, MIC by Agar dilution method, standard test strain 19; assay type: cell-based; details: P99, 18 h
Protocol: as §5, §6, §7
19. Enterobacter cloacae P99

[14] = system: Streptococcus pyogenes 77A; assay: Treatment effect on systemic infection model; assay type: in vivo; details: im, read-out: PD50
Protocol: The antibacterial activity test on systemic infection model was carried out using the compound of Example 18 as follows: 0.3 ml of diluted solution containing lethal dose of strain was administered intraperitoneally to the test animal, and then 5 to 0.078 mg/kg of compound was administered intramuscularly.

Acute toxcity test = details: in vivo, male ICR-mouse, after 1 week
Protocol: Further, in order to illustrate the usefulness of the compounds (I) as a drug, compounds of Examples 12, 18 and 36 were tested for acute toxcity by using 4 weeks-old male ICR-mouse as a test animal.
the compounds were dissolved in physiological saline and phosphate buffered solution (pH 7.0), or if they were […], suspended in carboxymethylcellulose or gum Arabic and then mixed with phosphate buffered solution.
The solution or mixture was administered to the tested animals intravenously or subcutaneously and, after 1 week, the number of surviving animals was calculated.

Escherichia coli TEM = assay: Antibacterial activity, MIC by Agar dilution method, standard test strain 10; assay type: cell-based; details: Escherichia coli TEM; 10^7 CFU/ml, 37° C., 18 hours; read-out: MIC
Protocol: as §5, §6, §7

[15] = system: Pseudomonas aeruginosa 9027; assay: Antibacterial activity, MIC by Agar dilution method, standard test strain 12; assay type: cell-based; details: 10^7 CFU/ml, 37° C., 18 hours
Protocol: as §5, §6, §7
12. Pseudomonas aeruginosa 9027

Escherichia coli DC O = assay: Antibacterial activity, MIC by Agar dilution method, standard test strain 8; assay type: cell-based; details: Escherichia coli, 18 h
Protocol: as §5, §6, §7

T1 sequence (P05193 21-381): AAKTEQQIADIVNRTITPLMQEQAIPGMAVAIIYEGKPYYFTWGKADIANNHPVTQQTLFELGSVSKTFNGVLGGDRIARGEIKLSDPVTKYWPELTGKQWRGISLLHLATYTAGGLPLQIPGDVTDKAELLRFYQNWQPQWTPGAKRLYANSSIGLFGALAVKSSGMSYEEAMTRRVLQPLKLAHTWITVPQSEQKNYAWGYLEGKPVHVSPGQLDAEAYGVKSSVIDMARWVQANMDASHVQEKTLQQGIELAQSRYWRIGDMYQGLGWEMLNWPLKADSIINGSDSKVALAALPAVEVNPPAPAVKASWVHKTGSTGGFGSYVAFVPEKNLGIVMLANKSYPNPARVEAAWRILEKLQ

CON=C(C(=O)NC1C(=O)N2C(C(=O)[O-])=C(C[n+]3nn(N)c4ccccc43)CSC12)c1csc(N)n1 [Example 18, (6R,7R)-7-[(Z)-2-(2-aminothiazol-4-yl)-2-methoxyiminoacetamido]-3-[(1-aminobenzotriazol-3-ium)methyl]-ceph-3-em-4-carboxylate]
Relative hydrolysis by β-lactamase [1]: 0.2 | Relative hydrolysis by β-lactamase [2]: 0.0 | MIC (Escherichia coli DC 2): 0.025 µg/mL (≈ 0.0472 µM) | MIC [3]: 0.781 µg/mL (≈ 1.47 µM) | MIC (Staphyloccus aureus 285): 0.781 µg/mL (≈ 1.47 µM) | antibacterial activity (in words) [4]: strong activity | MIC [5]: 0.004 µg/mL (≈ 0.00755 µM) | MIC [6]: 1.56 µg/mL (≈ 2.95 µM) | MIC (Klebsiella oxytoca 1082E): 0.049 µg/mL (≈ 0.0925 µM) | MIC [7]: > 100 µg/mL | MIC [8]: 0.025 µg/mL (≈ 0.0472 µM) | MIC (Escherichia coli 1507E): 0.025 µg/mL (≈ 0.0472 µM) | MIC [9]: 0.195 µg/mL (≈ 0.368 µM) | antibacterial activity (in words) [10]: superior activity | MIC [11]: 0.391 µg/mL (≈ 0.738 µM) | MIC (Salmonella typhimurium): 0.195 µg/mL (≈ 0.368 µM) | MIC [12]: 0.007 µg/mL (≈ 0.0132 µM) | MIC [13]: 0.004 µg/mL (≈ 0.00755 µM) | MIC (Enterobacter cloacae P99): 12.5 µg/mL (≈ 23.6 µM) | ED50 [14]: 0.27 mg/kg | LD50 at 168 h (Acute toxcity test; sc, Subcutaneous administration): > 6000 mg/kg | LD50 at 168 h (Acute toxcity test; Intravenous administration): > 4000 mg/kg | MIC (Escherichia coli TEM): 0.013 µg/mL (≈ 0.0245 µM) | MIC [15]: 3.12 µg/mL (≈ 5.9 µM) | MIC (Escherichia coli DC O): 0.025 µg/mL (≈ 0.0472 µM)

Source: patent US5336673A, “3-substituted cephem compounds” (priority 1990, dated 1994)
